Series [1] concerns FGFR1 mRNA expression in SRC1 and SRC2 glioblastoma stem cells. Nature of the series: FGFR1 mRNA expression by qPCR in glioblastoma stem cells treated with TTFields and FGFR inhibitor. The class given is cell-based. The conditions noted are these: PMGB 125 nM concomitantly with TTFields 200 kHz for 3 days. The method, then: FGFR1 mRNA level was quantified by qPCR in SRC1 and SRC2 glioblastoma stem cells after 3 days treatment with TTFields (200 kHz). Results are expressed in Fold change of FGFR1 expression in cells treated with TTFields compared to FGFR1 expression in non treated cells with TTFields.
Pemigatininb (PMGB) is an FGFR inhibitor. SRC1 and SRC2 were treated concomitantly with PMGB (125 nM) and TTFields (200 kHz) for 3 days. Results are expressed in Fold change of FGFR1 expression in cells treated with TTFields compared to FGFR1 expression in control cells.
(§1) This study focuses on the involvement of FGFR1 in the control of sensitivity to TTFields. The study was performed on several glioblastoma stem cells (GSC) fully characterized in vitro and in vivo that were obtained from clinical trial STEMRI (NCT01872221) at Institut Claudius Regaud. The inventors wish to thank Institut Claudius Regaud for providing the glioblastoma stem cells used in these experiments.

Another series has as its system FGF1, 2, 3, or 4. The conditions noted are these: comparison with lenvatinib (nonselective inhibitor of FGFR); cited from earlier work.
Series [2] relates to GBM biopsy specimen (SRA4, SRC1, SRC2, SRB2, and SRA5) glioblastoma stem cells. Nature of the series: Cell survival to TTFields in the presence of FGFR1 inhibitor. Format: cell-based. As to conditions: 5 GBM biopsy specimen, 3 days of TTFields 200 kHz and PMGB 125 nM. The method, then: as §1
The mechanism of radiation to induce cell death can be a result of DNA damage which leads to apoptosis, because it is known that TTFields also generate DNA damage and reduce the DNA repair mechanism. Radio sensitization is […] following addition of FGFR inhibitor. There is increased sensitivity to TTFields when there is concomitant treatment with FGFR inhibition which indicates a synergistic result of increased secretion of FGF family members in serum and conditioned media following TTFields application, thus explaining the reduced sensitivity of cells to TTFields.

As to `CCN1C(=O)N(c2c(F)c(OC)cc(OC)c2F)Cc2cnc3[nH]c(CN4CCOCC4)cc3c21` [Pemigatinib], the results for the “FGFR1 mRNA expression induced by TTFields (fold change vs control cells)” value in series [1] (listed as PMGB) and in series [1] (listed as pemigatinib) were “inhibited” and “inhibition”, respectively. Further, the “IC50 against at least one of FGF1, 2, 3, or 4, compared with lenvatinib” value in the series on FGF1, 2, 3, or 4 was “significantly lower IC50”. The “Cytotoxic effect / cell survival” value in series [2] was “cytotoxic effect”.

These data come from patent US20230405315A1, “Compositions And Methods For Treating With A Combination Of Alternating Electric Fields And FGF Inhibitors” (NOVOCURE GMBH, priority 2022, published 2023).
